# Measurements reported in patent US12503479B2, “Phospholipid-flavagline conjugates and methods of using the same for targeted cancer therapy” (Cellectar Biosciences, Inc., priority 2018, dated 2025).
# Read-outs that look alike come from different tables or passages of the source.
# What was measured:
# [1] = tested on: Caki-2 tumor cells (human clear cell renal cell carcinoma); details: 5 μM, 24 hours at 37° C., co-culture with normal fibroblast
# Protocol: (§1) Normal fibroblast and Caki-2 tumor cells (human clear cell renal cell carcinoma) were plated and co-cultured overnight (FIG. 1F). […] The next day cells were washed and co-stained with nucleus stain (Hoescht 33342). CLR 1501 was excited and then detected with an Alexa-Fluor 488 filter.
# [2] = tested on: Normal fibroblast; details: 5 μM, 24 hours at 37° C., co-culture with Caki-2 tumor cells
# Protocol: as §1
# [3] = tested on: PC3 (grade IV, human prostate adenocarcinoma) cell lines; details: 5 μM, 24 hours at 37° C.
# Protocol: PC3 (grade IV, human prostate adenocarcinoma) cell lines were cultured overnight on micro slide VI (Ibidi, Verona, WI). […] The next day after washing with PBS, the cells were co-stained with nucleus stain (Hoechst 33342) and mitochondria marker (Mitotracker®) (Invitrogen, Carlsbad, CA). The cells were observed using Nikon A1R confocal microscope. CLR 1501 was excited and detected using Alexa-Fluor 488 filter, while nucleus stain and mitochondria stain were excited and detected using DAPI filter and Texas-Red filter, respectively.
# [4] = tested on: Adrenal H-295; details: SCID Mouse, Adenocarcinoma
# From the text: (§2) Various cancer cell lines were exposed in vitro and in vivo to a fluorescently labelled PLE (CLR 1501, compound (1)).
# [5] = tested on: Adrenal RL-251; details: SCID Mouse, Adenocarcinoma
# From the text: as §2
# [6] = tested on: Breast 4T1; details: Endogenous Mouse (orthotopic), Adenocarcinoma
# From the text: as §2
# [7] = tested on: Breast MCF-7; details: Rat, Adenocarcinoma
# From the text: as §2
# [8] = tested on: Cervical; details: Endogenous Mouse, Adenocarcinoma
# From the text: as §2
# [9] = tested on: Colon CT-26; details: SCID Mouse, Adenocarcinoma
# From the text: as §2
# [10] = tested on: Colon DLDI; details: SCID Mouse, Colorectal adenocarcinoma
# From the text: as §2
# [11] = tested on: Colon HT-29; details: SCID Mouse, Colorectal adenocarcinoma
# From the text: as §2
# [12] = tested on: Colon LS-180; details: Nude Mouse, Adenocarcinoma
# From the text: as §2
# [13] = tested on: Colon-51; details: SCID Mouse, Colorectal adenocarcinoma
# From the text: as §2
# [14] = tested on: ColonLS180; details: SCID Mouse, Colorectal adenocarcinoma
# From the text: as §2
# [15] = tested on: Esophageal; details: Endogenous Mouse, Adenocarcinoma
# From the text: as §2
# [16] = tested on: Glioma C6; details: Rat xenograft
# From the text: as §2
# [17] = tested on: Glioma CNS1; details: Rat xenograft
# From the text: as §2
# [18] = tested on: Glioma L9; details: Rat xenograft
# From the text: as §2
# [19] = tested on: Glioma RG2; details: Rat xenograft
# From the text: as §2
# [20] = tested on: Hepatocellular Carcinoma; details: Endogenous Mouse, Adenocarcinoma
# From the text: as §2
# [21] = tested on: Lung A-549 (NSCLC); details: SCID Mouse, Adenocarcinoma
# From the text: as §2
# [22] = tested on: Lung NCI H-69 (Oat Cell); details: SCID Mouse
# From the text: as §2
# [23] = tested on: Mammary AC; details: Apc^Min/+ mouse, Adenocarcinoma
# From the text: as §2
# [24] = tested on: Mammary SCC; details: Apc^Min/+ mouse, Squamous cell carcinoma
# From the text: as §2
# [25] = tested on: Melanoma A-375; details: Nude Mouse
# From the text: as §2
# [26] = tested on: Melanoma; details: Mouse, Adenocarcinoma
# From the text: as §2
# [27] = tested on: Min Mouse Intestinal; details: Endogenous Mouse, Adenocarcinoma
# From the text: as §2
# [28] = tested on: Ovarian HTB-77; details: Nude Mouse, Adenocarcinoma
# From the text: as §2
# [29] = tested on: Pancreatic BXPC3; details: Nude Mouse, Adenocarcinoma
# From the text: as §2
# [30] = tested on: Pancreatic Capan-1; details: Nude Mouse, Adenocarcinoma
# From the text: as §2
# [31] = tested on: Pancreatic Kras; details: Endogenous Mouse, Adenocarcinoma
# From the text: as §2
# [32] = tested on: Pancreatic c-myc; details: Endogenous Mouse, Adenocarcinoma
# From the text: as §2
# [33] = tested on: Prostate LnCap; details: Mouse, Adenocarcinoma
# From the text: as §2
# [34] = tested on: Prostate LuCap; details: Mouse, Adenocarcinoma
# From the text: as §2
# [35] = tested on: Prostate MatLyLu; details: Rat, Adenocarcinoma
# From the text: as §2
# [36] = tested on: Prostate PC-3; details: SCID Mouse, Adenocarcinoma
# From the text: as §2
# [37] = tested on: Renal Cell ACHN; details: Nude Mouse (orthotopic), Adenocarcinoma
# From the text: as §2
# [38] = tested on: Renal Cell Caki-2; details: Nude Mouse (orthotopic), Adenocarcinoma
# From the text: as §2
# [39] = tested on: Retinoblastoma; details: Endogenous Mouse, Blastoma
# From the text: as §2
# [40] = tested on: SCC1; details: Nude Mouse, Squamous cell carcinoma
# From the text: as §2
# [41] = tested on: SCC6; details: Nude Mouse
# From the text: as §2
# [42] = tested on: Sarcoma (Meth-A); details: Nude Mouse, Fibrosarcoma
# From the text: as §2
# [43] = tested on: TRAMP prostate; details: Endogenous Mouse, Adenocarcinoma
# From the text: as §2
# [44] = tested on: Various cancer cell lines; details: in vitro and in vivo; uptake measured continuously for 24 hours
# From the text: as §2
# [45] = tested on: Walker-256; details: Rat, Carcinosarcoma
# From the text: as §2
# [46] = tested on: cancer stem cells, normal brain tissue, and normal stem cells; details: FIG. 7
# From the text: as §2
# [47] = tested on: myeloma cell lines; details: FIG. 6
# From the text: as §2
# [48] = tested on: A549 cells; details: A549 cells treated with methyl b-cyclodextrin compared to untreated cells; 5 μμM, 24 hours
# [49] = tested on: benign tissues; details: in vivo
# [50] = tested on: A549 (human lung adenocarcinoma) cells; assay: Cytotoxicity of parent compound versus PDC, tumor cells (Example 8); type: cell-based; details: increasing concentrations; for Cytotoxic potency to A549 cells versus NHDF cells (selectivity): FIG. 3
# Protocol: (§3) A549 (human lung adenocarcinoma) cells and normal human dermal fibroblasts (NHDF) were plated in 96 well dishes overnight. […] The difference between the cytotoxicity of the PDC molecule for tumor cells and that of the normal cells may have indicated a potential to improve the parent molecules therapeutic index.
# [51] = tested on: normal human dermal fibroblasts (NHDF); assay: Cytotoxicity of parent compound versus PDC, normal cells (Example 8); type: cell-based; details: increasing concentrations
# Protocol: as §3
# [52] = tested on: A549 (human lung adenocarcinoma); assay: cells; type: cell-based; details: various concentrations; A549 and NHDF; FIG. 8
# [53] = tested on: NHDF (normal human dermal fibroblasts); assay: cells; type: cell-based
# [54] = type: in vivo, mice
# Protocol: Listed in Table 5 are the doses administered to the mice, and how many mice were alive after treatment (“3/3” indicates 3 out of 3 mice were alive). […] MTD for CLR 1865 was between 5 and 10 mg/kg.
# [55] = tested on: HCT 116 cells (human colon cancer); type: in vivo; design: dose or concentration left out as unconfirmed; details: HCT 116 tumor model; three doses; FIG. 9
# [56] = tested on: A375 and A549 cells; assay: Levels of FLV3 in cell lysate and growth media (LC/MS); type: cell-based, human
# Protocol: FIG. 11 is a graph of concentration versus time for FLV3 detected in the cytosol (normalized to the cytosolic volume) in A375 (human melanoma) and A549 (human lung adenocarcinoma) cell lines.
# The levels of FLV3 in cell lysate and growth media were measured using LC/MS. […] Levels of intracellular FLV3 appeared to plateau at 24 hours, while extracellular levels of FLV3 continued to increase.
# [57] = Plasma stability, human
# Protocol: (§4) A small amount of molecule was exposed to plasma, and the plasma was then analyzed via HPLC or MS to determine if the molecule was degraded.
# [58] = Plasma stability, mouse
# Protocol: as §4
smiles,measurement,setting,value
C[N+](C)(C)CCOP(=O)([O-])OCCCCCCCCCCCCCCCCCCc1ccc(C2=C3C=CC=[N+]3[B-](F)(F)n3cccc32)cc1 [CLR 1501],Localization in Caki-2 cells,[1],highly localized
same,Localization in normal fibroblast cells,[2],minimally
same,Co-localization with mitochondria,[3],co-localized with mitochondria
same,Tumor Uptake,[4],Yes
same,Tumor Uptake,[5],Yes
same,Tumor Uptake,[6],Yes
same,Tumor Uptake,[7],Yes
same,Tumor Uptake,[8],Yes
same,Tumor Uptake,[9],Yes
same,Tumor Uptake,[10],Yes
same,Tumor Uptake,[11],Yes
same,Tumor Uptake,[12],Yes
same,Tumor Uptake,[13],Yes
same,Tumor Uptake,[14],Yes
same,Tumor Uptake,[15],Yes
same,Tumor Uptake,[16],Yes
same,Tumor Uptake,[17],Yes
same,Tumor Uptake,[18],Yes
same,Tumor Uptake,[19],Yes
same,Tumor Uptake,[20],Yes
same,Tumor Uptake,[21],Yes
same,Tumor Uptake,[22],Yes
same,Tumor Uptake,[23],Yes
same,Tumor Uptake,[24],Yes
same,Tumor Uptake,[25],Yes
same,Tumor Uptake,[26],Yes
same,Tumor Uptake,[27],Yes
same,Tumor Uptake,[28],Yes
same,Tumor Uptake,[29],Yes
same,Tumor Uptake,[30],Yes
same,Tumor Uptake,[31],Yes
same,Tumor Uptake,[32],Yes
same,Tumor Uptake,[33],Yes
same,Tumor Uptake,[34],Yes
same,Tumor Uptake,[35],Yes
same,Tumor Uptake,[36],Yes
same,Tumor Uptake,[37],Yes
same,Tumor Uptake,[38],Yes
same,Tumor Uptake,[39],Yes
same,Tumor Uptake,[40],Yes
same,Tumor Uptake,[41],Yes
same,Tumor Uptake,[42],Yes
same,Tumor Uptake,[43],Yes
same,Specificity for tumors and cancer cells,[44],specific for tumors and cancer cells
same,Tumor Uptake,[45],Yes
same,Uptake into cancer cells versus normal brain tissue and normal stem cells,[46],specific uptake
same,"Uptake, myeloma cell lines",[47],uptake
same,Reduction in uptake after disruption of lipid rafts,[48],60%
same,Uptake in benign tissues,[49],no uptake was observed
COC(=O)[C@H]1[C@@H](O)[C@@]2(O)c3c(OC)cc(OCCCCNC(=O)OCC(C)(C)SSCCCCCCCCCCCCCCCCCCOP(=O)([O-])OCC[N+](C)(C)C)cc3O[C@@]2(c2ccc(OC)cc2)[C@@H]1c1ccccc1 [CLR 1852],Cytotoxic potency in A549 cells relative to the parent molecule,[50],near similar potency to the parent molecule in A549 cells
same,Cytotoxic potency to A549 cells versus NHDF cells (selectivity),[50],selectivity for the A549 cells
same,Cytotoxic effect on NHDF cells,[51],almost no effect on NHDF cells until the highest concentrations
same,Cytotoxic potency compared to FLV3 alone,[52],modest loss in potency compared to FLV3 alone
same,Therapeutic Index (TI),[53],360
same,Therapeutic Index (TI) (value in parentheses),[53],915
same,Mice alive after treatment,[54]; Dose 0.1 mg/kg,3/3
same,Mice alive after treatment,[54]; Dose 0.25 mg/kg,3/3
same,Mice alive after treatment,[54]; Dose 0.5 mg/kg,3/3
same,Mice alive after treatment,[54]; Dose 1.0 mg/kg,3/3
same,Mice alive after treatment,[54]; Dose 5.0 mg/kg,3/3
same,Mice alive after treatment,[54]; Dose 10.0 mg/kg,3/3
same,Maximum tolerated dose (MTD),[54]; mice,did not achieve a maximum tolerated dose
same,Tolerability compared to FLV3 alone,[54]; mice,excellent improvement in tolerability compared to FLV3 alone
same,In vivo therapeutic index,"[54]; mouse, in vivo",at least 25
same,Time from which tumor volume was reduced compared to vehicle,[55],around 27 days
same,Time at which levels of intracellular FLV3 plateau,[56],24 h
same,Levels of FLV3 in the growth media,[56]; after 24 hours,Moderate levels
same,Levels of FLV3 in the cell lysate,"[56]; after 24 hours, FIG. 11",high levels
same,Human half-life,[57],>6.67 h
same,Human plasma stability,[57],excellent human plasma stability
same,Mouse half-life,[58]; mouse plasma,>6.67 h
same,Time stable in plasma,"[58]; plasma, species not stated",at least 7 hours
"COc1ccc([C@]23Oc4cc(OCCCCN)cc(OC)c4[C@@]2(O)[C@@H](O)[C@@H](C(=O)O)[C@@H]3c2ccccc2)cc1 [FLV1, reference compound]",Cytotoxic potency to A549 cells versus NHDF cells (selectivity),[50],near equal potency to the A549 cells as it did to the NHDF cells
COc1ccc([C@@]23Oc4cc(OCCCCNC(=O)OCC(C)(C)SSCCCCCCCCCCCCCCCCCCOP(=O)([O-])OCC[N+](C)(C)C)cc(OC)c4[C@]2(O)[C@H](O)[C@H](C(=O)O)[C@H]3c2ccccc2)cc1 [CLR 1865],Cytotoxic potency in A549 cells relative to the parent molecule,[50],near similar potency to the parent molecule in A549 cells
same,Cytotoxic potency to A549 cells versus NHDF cells (selectivity),[50],selectivity for the A549 cells
same,Cytotoxic effect on NHDF cells,[51],almost no effect on NHDF cells until the highest concentrations
same,Therapeutic Index (TI) (value in parentheses),[53]; from the NHDF value in parentheses,37.3
same,Therapeutic Index (TI),"[53]; not defined, equals NHDF IC50 over lowest tumor line IC50",11.64
same,Mice alive after treatment,[54]; Dose 0.1 mg/kg,3/3
same,Mice alive after treatment,[54]; Dose 0.25 mg/kg,3/3
same,Mice alive after treatment,[54]; Dose 0.5 mg/kg,3/3
same,Mice alive after treatment,[54]; Dose 1.0 mg/kg,3/3
same,Mice alive after treatment,[54]; Dose 5.0 mg/kg,3/3
same,Mice alive after treatment,[54]; Dose 10.0 mg/kg,2/3
same,In vivo therapeutic index,[54]; mice,≥ 12.5
same,Tolerability compared to FLV3 alone,[54]; mice,excellent improvement in tolerability compared to FLV3 alone
same,Human half-life,[57],>6.67 h
same,Human plasma stability,[57],excellent human plasma stability
same,Mouse half-life,[58]; mouse plasma,3.32 h
same,Time stable in mouse plasma,[58]; mouse plasma,3.3 h
